# Laboratory results taken from patent publication US5891909A, “Amidinohydrazones as protease inhibitors” (3-Dimensional Pharmaceuticals, Inc., priority 1997, dated 1999).
# Structures can show the parent of a compound that is named as a salt.
# Molecular target: T1, human α-thrombin (Homo sapiens, UniProt P00734)
# T1 construct: Human α-thrombin, human factor Xa and human plasmin were obtained from Enzyme Research Laboratories; purchased Enzyme Research Laboratories (South Bend, Ind.)
# Experiment: Thrombin inhibition, Ki determination (hydrolysis of N-succinyl-Ala-Ala-Pro-Arg-p-nitroanilide)
# Assay type: biochemical
# Conditions: Table 1; pH 7.5, 37° C.; read-out: Thrombin Ki
# Excerpt: All buffer salts were obtained from Sigma Chemical Company (St. Louis, Mo.), and were of the highest purity available. The enzyme substrates, N-benzoyl-Phe-Val-Arg-p-nitroanilide (Sigma B7632), N-benzoyl-Ile-Glu-Gly-Arg-p-nitroanilide hydrochloride (Sigma B2291), N-p-Tosyl-Gly-Pro-Lys-p-nitroanilide (Sigma T6140), N-succinyl-Ala-Ala-Pro-Phe-p-nitroanilide (Sigma S7388) and N-CBZ-Val-Gly-Arg-p-nitroanilide (Sigma C7271) were obtained from Sigma.
# Human α-thrombin, human factor Xa and human plasmin were obtained from Enzyme Research Laboratories (South Bend, Ind.). Bovine α-chymotrypsin (Sigma C4129), bovine trypsin (Sigma T8642) and human kidney cell urokinase (Sigma U5004) were obtained from Sigma. Human leukocyte elastase was obtained from Elastin Products (Pacific, Mo.).
# All assays are based on the ability of the test compound to inhibit the enzyme catalyzed hydrolysis of a peptide p-nitroanilide substrate. […] The final concentrations for each of the substrates is listed below. In general, substrate concentrations are lower than the experimentally determined value for Km. Test compounds are prepared as a 1.0 mg/ml solution in DMSO. Dilutions are prepared in DMSO yielding 8 final concentrations encompassing a 200 fold concentration range. Enzyme solutions are prepared at the concentrations listed below in assay buffer.
# Data corresponding to less than 10% of the total substrate hydrolysis were used in the calculations. The ratio of the velocity (rate of change in absorbance as a function of time) for a sample containing no test compound is divided by the velocity of a sample containing test compound, and is plotted as a function of test compound concentration. The data are fit to a linear regression, and the value of the slope of the line calculated. The inverse of the slope is the experimentally determined Ki value.
# Thrombin activity was assessed as the ability to hydrolyze the substrate N-succinyl-Ala-Ala-Pro-Arg-p-nitroanilide.
row,SMILES,Ki
1,"COc1ccc(Cl)cc1S(=O)(=O)Oc1cc(C)cc(OCCC=NNC(=N)NN)c1 [Example 27, 2-Amino-[2-[2-[3-(5-chloro-2-methoxyphenylsulfonyloxy)-5-methylphenoxy]ethyl-1-methylene]hydrazine]carboximidamine acetate]",0.298 µM
2,"Cc1cc(OCC2(C=NNC(=N)N)CC2)cc(OS(=O)(=O)c2ccccc2C#N)c1 [Example 39, 2-[[1-[3-(2-Cyanophenylsulfonyloxy)-5-methylphenoxy]-methyl]cyclopropyl-1-methylene]hydrazinecarboximidamide acetate]",0.052 µM
3,"Cc1cc(OCCC=NNC(=N)N)cc(OS(=O)(=O)c2cccnc2)c1 [Example 34, 2-[2-[5-methyl-3-(3-pyridinylsulfonyloxy)phenoxy]ethyl-1-methylene]hydrazinecarboximidamide diacetate]",0.056 µM
4,"Cc1cc(OCCC=NNC(=N)N)cc(OCc2ccccc2C(F)(F)F)c1 [Example 3, 2-[2-[5-methyl-3-(2-trifluoromethylbenzyloxy)phenoxy]ethyl-1-methylene]hydrazinecarboximidamide nitrate]",0.465 µM
5,"Cc1cc(OCCC=NNC(=N)N)cc(OS(=O)(=O)c2c(C)nn(C)c2Cl)c1 [Example 20, 2-[2-[3-(5-chloro-1,3-dimethylpyrazole-4-sulfonyloxy)-5-methylphenoxy]ethyl-1-methylene]hydrazinecarboximidamide acetate]",0.0762 µM
6,"Cc1cc(OCCC=NNC(=N)N)cc(OS(=O)(=O)c2cccc(C#N)c2)c1 [Example 36, 2-[2-[3-(3-Cyanophenylsulfonyloxy)-5-methylphenoxy]ethyl-1-methylene]hydrazinecarboximidamide nitrate]",0.068 µM
7,"COc1ccccc1S(=O)(=O)Oc1cc(C)cc(OCCCC=NNC(=N)N)c1 [Example 23, 2-[3-[3-(2-Methoxyphenylsulfonyloxy)-5-methylphenoxy]propyl-1-methylene]hydrazinecarboximidamide nitrate]",1.67 µM
8,"Cc1cc(OCCC=NNC(=N)N)cc(OS(=O)(=O)c2cc(C(F)(F)F)ccc2Cl)c1 [Example 26, 2-[2-[3-(2-Chloro-5-trifluoromethylphenylsulfonyloxy)-5-methylphenoxy]ethyl-1-methylene]hydrazinecarboximidamide nitrate]",1.54 µM
9,"COc1cc(CCCC=NNC(=N)N)cc(OS(=O)(=O)c2ccccc2Cl)c1 [Example 4, 2-[3-[3-(2-chlorophenylsulfonyloxy)-5-methoxyphenyl]propyl-1-methylene]hydrazinecarboximidamide hydrochloride]",1.27 µM
10,"Cc1cc(OCCC=NNC(=N)N)cc(OS(=O)(=O)c2cc([N+](=O)[O-])ccc2C)c1 [Example 22, 2-[2-[5-Methyl-3-(2-methyl-5-nitrophenylsulfonyloxy)phenoxy]ethyl-1-methylene]hydrazinecarboximidamide nitrate]",0.0636 µM
11,"Cc1cc(OCCC=NNC(=N)N)cc(OS(=O)(=O)c2cccc3ccccc23)c1 [Example 25, 2-[2-[5-Methyl-3-(1-naphthalenylsulfonyloxy)phenoxy]ethyl-1-methylene]hydrazinecarboximidamide nitrate]",0.0632 µM
12,"COc1ccc(Cl)cc1S(=O)(=O)Oc1cc(C)cc(OCCC=NN(N)C(=N)N)c1 [Example 28, 1-Amino-2-[2-[3-(5-chloro-2-methoxyphenylsulfonyloxy)-5-methylphenoxy]ethyl-1-methylene]hydrazinecarboximidamine acetate]",0.186 µM
13,"Cc1cc(OCCC=NNC(=N)N)cc(OS(=O)(=O)c2cccc(F)c2)c1 [Example 35, 2-[2-[3-(3-Fluorophenylsulfonyloxy)-5-methylphenoxy]ethyl-1-methylene]hydrazinecarboximidamide nitrate]",0.031 µM
14,"Cc1cc(OCCC=NNC(=N)N)cc(N(CCCCc2ccccc2)S(=O)(=O)c2ccccc2C(F)(F)F)c1 [Example 31, 2-[2-[(3-Methyl-5-(N-(4-phenylbutyl)-N-(2-trifluoromethylphenylsulfonyl))amino)phenoxy]ethyl-1-methylene]hydrazinecarboximidamide acetate]",0.0692 µM
15,"COc1ccc(C)cc1S(=O)(=O)Oc1cc(C)cc(OCCC=NNC(=N)N)c1 [Example 14, 2-[2-[3-(2-Methoxy-5-methylphenylsulfonyloxy)-5-methylphenoxy]ethyl-1-methylene]hydrazinecarboximidamide nitrate]",0.0475 µM

# Stronger by Ki, values ahead:
row,Ki,SMILES
1,0.0036 µM,"Cc1cc(OCCC=NNC(=N)N)cc(OS(=O)(=O)c2cccc(Cl)c2)c1 [Example 21, 2-[2-[3-(3-Chlorophenylsulfonyloxy)-5-methylphenoxy]ethyl-1-methylene]hydrazinecarboximidamide nitrate]"
2,0.0249 µM,"Cc1cc(OCCC=NNC(=N)N)cc(OS(=O)(=O)c2cccc3cnccc23)c1 [Example 32, 2-[2-[3-(5-Isoquinolinylsulfonyloxy)-5-methylphenoxy]ethyl-1-methylene]hydrazinecarboximidamide nitrate]"
3,0.0064 µM,"COc1ccccc1S(=O)(=O)Oc1cc(C)cc(OCCC=NNC(=N)N)c1 [Example 8, 2-[2-[3-(2-Methoxyphenylsulfonyloxy)-5-methylphenoxy]ethyl-1-methylene]hydrazinecarboximidamide acetate]"
4,0.0094 µM,"COc1ccc(Br)cc1S(=O)(=O)Oc1cc(C)cc(OCCC=NNC(=N)N)c1 [Example 9, 2-[2-[3-(5-Bromo-2-methoxyphenylsulfonyloxy)-5-methylphenoxy]ethyl-1-methylene]hydrazinecarboximidamide nitrate]"
5,0.0264 µM,"CCOC(=O)CCCCCN(c1cc(C)cc(OCCC=NNC(=N)N)c1)S(=O)(=O)c1ccccc1C(F)(F)F [Example 5, 2-[2-[(5-methyl-3-(N-(5-ethoxycarbonylpentyl)-N-(2-trifluoromethylphenylsulfonyl)amino)phenoxy]ethyl-1-methylene]hydrazinecarboximidamide nitrate]"
6,0.014 µM,"Cc1cc(OCCC=NNC(=N)N)cc(OS(=O)(=O)c2ccccc2C#N)c1 [Example 13, 2-[2-[3-(2-Cyanophenylsulfonyloxy)-5-methylphenoxy]ethyl-1-methylene]hydrazinecarboximidamide hydrochloride]"
7,0.0047 µM,"COc1ccc(Cl)cc1S(=O)(=O)Oc1cc(C)cc(OCCC=NNC(=N)N)c1 [Example 18, 2-[2-[3-(5-Chloro-2-methoxyphenylsulfonyloxy)-5-methylphenoxy]ethyl-1-methylene]hydrazinecarboximidamide hydrochloride]"
8,0.0084 µM,"Cc1cc(OCCC=NNC(=N)N)cc(OS(=O)(=O)c2ccccc2C(F)(F)F)c1 [Example 2, 2-[2-[5-Methyl-3-(2-trifluoromethylphenylsulfonyloxy)phenoxy]ethyl-1-methylene]hydrazinecarboximidamide nitrate]"
9,0.0135 µM,"Cc1cc(OCCC=NNC(=N)N)cc(OS(=O)(=O)c2cc(F)ccc2C)c1 [Example 24, 2-[2-[3-(5-Fluoro-2-methylphenylsulfonyloxy)-5-methylphenoxy]ethyl-1-methylene]hydrazinecarboximidamide nitrate]"
10,0.0062 µM,"Cc1cc(OCCC=NNC(=N)N)cc(OS(=O)(=O)c2cc(C)ccc2C)c1 [Example 17, 2-[2-[3-(2,5-Dimethylphenylsulfonyloxy)-5-methylphenoxy]ethyl-1-methylene]hydrazinecarboximidamide nitrate]"
11,0.0149 µM,"Cc1cc(OCCC=NNC(=N)N)cc(OS(=O)(=O)c2cc(Cl)ccc2Cl)c1 [Example 7, 2-[2-[3-(2,5-Dichlorophenylsulfonyloxy)-5-methylphenoxy]ethyl-1-methylene]hydrazinecarboximidamide nitrate]"
12,0.0136 µM,"Cc1cc(OCCC=NNC(=N)N)cc(OS(=O)(=O)c2cccc(Cl)c2Cl)c1 [Example 6, 2-[2-[3-(2,3-Dichlorophenylsulfonyloxy)-5-methylphenoxy]ethyl-1-methylene]hydrazinecarboximidamide nitrate]"
13,0.0213 µM,"COc1ccc(OC)c(S(=O)(=O)Oc2cc(C)cc(OCCC=NNC(=N)N)c2)c1 [Example 16, 2-[2-[3-(2,5-Dimethoxyphenylsulfonyloxy)-5-methylphenoxy]ethyl-1-methylene]hydrazinecarboximidamide nitrate]"
14,0.0172 µM,"Cc1cc(OCCC=NNC(=N)N)cc(OS(=O)(=O)c2ccccc2OC(F)(F)F)c1 [Example 10, 2-[2-[5-Methyl-3-(2-trifluoromethoxyphenylsulfonyloxy)phenoxy]ethyl-1-methylene]hydrazinecarboximidamide nitrate]"
15,0.0296 µM,"Cc1cc(OCCC=NNC(=N)N)cc(OS(=O)(=O)c2cccc3nsnc23)c1 [Example 11, 2-[2-[3-(Benzo-2,1,3-thiadiazole-4-sulfonyloxy)-5-methylphenoxy]ethyl-1-methylene]hydrazinecarboximidamide nitrate]"
